Data reported in PubChem BioAssay (NCI).
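Test compounds were applied to cells in 96-well plates for 48 hours at 5 doses. Here, GI50 denotes the concentration required for 50% inhibition of growth. The concentration for full growth arrest is given as TGI.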

What was measured:
Assay in all cases: NCI-60 cell line screen, 48 h
UO-31 renal = test system: UO-31 renal
CCRF-CEM leukemia = test system: CCRF-CEM leukemia
ACHN renal = test system: ACHN renal
COLO 205 colon = test system: COLO 205 colon
IGROV1 ovarian = test system: IGROV1 ovarian
A549 NSCLC = test system: A549 NSCLC
MDA-MB-435 = test system: MDA-MB-435
PC-3 prostate = test system: PC-3 prostate
UACC-257 melanoma = test system: UACC-257 melanoma
SK-MEL-2 melanoma = test system: SK-MEL-2 melanoma
LOX IMVI melanoma = test system: LOX IMVI melanoma
T-47D breast = test system: T-47D breast
OVCAR-4 ovarian = test system: OVCAR-4 ovarian
SK-MEL-28 melanoma = test system: SK-MEL-28 melanoma
SNB-19 CNS = test system: SNB-19 CNS
BT-549 breast = test system: BT-549 breast
HT29 colon = test system: HT29 colon
NCI-H522 lung = test system: NCI-H522 lung
UACC-62 melanoma = test system: UACC-62 melanoma
SR leukemia = test system: SR leukemia
MDA-MB-468 breast = test system: MDA-MB-468 breast
OVCAR-8 ovarian = test system: OVCAR-8 ovarian
SF-295 CNS = test system: SF-295 CNS
SK-MEL-5 melanoma = test system: SK-MEL-5 melanoma
MOLT-4 leukemia = test system: MOLT-4 leukemia
HCC-2998 colon = test system: HCC-2998 colon
M14 melanoma = test system: M14 melanoma
EKVX NSCLC = test system: EKVX NSCLC
KM12 colon = test system: KM12 colon
HS 578T breast = test system: HS 578T breast
DU-145 prostate = test system: DU-145 prostate
MDA-MB-231 breast = test system: MDA-MB-231 breast
NCI-H23 lung = test system: NCI-H23 lung
HOP-92 NSCLC = test system: HOP-92 NSCLC
A498 renal = test system: A498 renal
SK-OV-3 ovarian = test system: SK-OV-3 ovarian
SN12C renal = test system: SN12C renal
SNB-75 CNS = test system: SNB-75 CNS
SF-268 CNS = test system: SF-268 CNS
U251 CNS = test system: U251 CNS
OVCAR-5 ovarian = test system: OVCAR-5 ovarian
SW-620 colon = test system: SW-620 colon
SF-539 CNS = test system: SF-539 CNS
NCI-H226 lung = test system: NCI-H226 lung
K-562 leukemia = test system: K-562 leukemia
RPMI-8226 leukemia = test system: RPMI-8226 leukemia
CAKI-1 renal = test system: CAKI-1 renal
RXF 393 renal = test system: RXF 393 renal
HL-60(TB) leukemia = test system: HL-60(TB) leukemia
TK-10 renal = test system: TK-10 renal
NCI-H460 lung = test system: NCI-H460 lung
MCF7 breast = test system: MCF7 breast
OVCAR-3 ovarian = test system: OVCAR-3 ovarian
HOP-62 NSCLC = test system: HOP-62 NSCLC
786-0 renal = test system: 786-0 renal
HCT-116 colon = test system: HCT-116 colon
MALME-3M melanoma = test system: MALME-3M melanoma
HCT-15 colon = test system: HCT-15 colon

Which results are given for `CC(=O)Oc1ccccc1C(=O)NC([Se])=NC1CCCCC1`?
GI50 (UO-31 renal): 1620 nM; TGI (UO-31 renal): 3.03 µM; GI50 (CCRF-CEM leukemia): 5.25 µM; TGI (CCRF-CEM leukemia): 29.4 µM; GI50 (ACHN renal): 9.75 µM; TGI (ACHN renal): 25.8 µM; GI50 (COLO 205 colon): 17.1 µM; TGI (COLO 205 colon): 31.4 µM; GI50 (IGROV1 ovarian): 2020 nM; TGI (IGROV1 ovarian): 3.98 µM; GI50 (A549 NSCLC): 3.3 µM; TGI (A549 NSCLC): 23 µM; GI50 (MDA-MB-435): 7.88 µM; TGI (MDA-MB-435): 20.9 µM; GI50 (PC-3 prostate): 2630 nM; TGI (PC-3 prostate): 8.24 µM; GI50 (UACC-257 melanoma): 2930 nM; TGI (UACC-257 melanoma): 10.2 µM; GI50 (SK-MEL-2 melanoma): 2350 nM; TGI (SK-MEL-2 melanoma): 5.29 µM; GI50 (LOX IMVI melanoma): 1960 nM; TGI (LOX IMVI melanoma): 4.26 µM; GI50 (T-47D breast): 12.5 µM; TGI (T-47D breast): 30.2 µM; GI50 (OVCAR-4 ovarian): 4.35 µM; TGI (OVCAR-4 ovarian): 16.9 µM; GI50 (SK-MEL-28 melanoma): 3.59 µM; TGI (SK-MEL-28 melanoma): 13.1 µM; GI50 (SNB-19 CNS): 3.28 µM; TGI (SNB-19 CNS): 11.7 µM; GI50 (BT-549 breast): 3.3 µM; TGI (BT-549 breast): 11.3 µM; GI50 (HT29 colon): 4.87 µM; TGI (HT29 colon): 28.7 µM; GI50 (NCI-H522 lung): 15.6 µM; TGI (NCI-H522 lung): 30 µM; GI50 (UACC-62 melanoma): 1790 nM; TGI (UACC-62 melanoma): 3.89 µM; GI50 (SR leukemia): 3.11 µM; TGI (SR leukemia): 14.4 µM; GI50 (MDA-MB-468 breast): 7.37 µM; TGI (MDA-MB-468 breast): 20.7 µM; GI50 (OVCAR-8 ovarian): 1950 nM; TGI (OVCAR-8 ovarian): 3.73 µM; GI50 (SF-295 CNS): 2240 nM; TGI (SF-295 CNS): 5.08 µM; GI50 (SK-MEL-5 melanoma): 1630 nM; TGI (SK-MEL-5 melanoma): 3.07 µM; GI50 (MOLT-4 leukemia): 10.8 µM; TGI (MOLT-4 leukemia): 98.8 µM; GI50 (HCC-2998 colon): 2280 nM; TGI (HCC-2998 colon): 5.11 µM; GI50 (M14 melanoma): 2430 nM; TGI (M14 melanoma): 5.7 µM; GI50 (EKVX NSCLC): 2120 nM; TGI (EKVX NSCLC): 4.93 µM; GI50 (KM12 colon): 3.42 µM; TGI (KM12 colon): 11.7 µM; GI50 (HS 578T breast): 2670 nM; TGI (HS 578T breast): 9.16 µM; GI50 (DU-145 prostate): 3.22 µM; TGI (DU-145 prostate): 10.2 µM; GI50 (MDA-MB-231 breast): 1960 nM; TGI (MDA-MB-231 breast): 3.77 µM; GI50 (NCI-H23 lung): 2240 nM; TGI (NCI-H23 lung): 5.35 µM; GI50 (HOP-92 NSCLC): 2340 nM; TGI (HOP-92 NSCLC): 6.52 µM; GI50 (A498 renal): 2410 nM; TGI (A498 renal): 7.58 µM; GI50 (SK-OV-3 ovarian): 2840 nM; TGI (SK-OV-3 ovarian): 7.5 µM; GI50 (SN12C renal): 1990 nM; TGI (SN12C renal): 4.41 µM; GI50 (SNB-75 CNS): 1710 nM; TGI (SNB-75 CNS): 5.87 µM; GI50 (SF-268 CNS): 13.7 µM; TGI (SF-268 CNS): 31.2 µM; GI50 (U251 CNS): 2350 nM; TGI (U251 CNS): 6.24 µM; GI50 (OVCAR-5 ovarian): 2070 nM; TGI (OVCAR-5 ovarian): 5.15 µM; GI50 (SW-620 colon): 10.2 µM; TGI (SW-620 colon): 23.6 µM; GI50 (SF-539 CNS): 1840 nM; TGI (SF-539 CNS): 3.46 µM; GI50 (NCI-H226 lung): 2560 nM; TGI (NCI-H226 lung): 9.46 µM; GI50 (K-562 leukemia): 26.1 µM; TGI (K-562 leukemia): > 100 µM; GI50 (RPMI-8226 leukemia): 2630 nM; TGI (RPMI-8226 leukemia): 7.61 µM; GI50 (CAKI-1 renal): 3.07 µM; TGI (CAKI-1 renal): 11.5 µM; GI50 (RXF 393 renal): 1650 nM; TGI (RXF 393 renal): 3.34 µM; GI50 (HL-60(TB) leukemia): 18.2 µM; TGI (HL-60(TB) leukemia): > 100 µM; GI50 (TK-10 renal): 12.1 µM; TGI (TK-10 renal): 24.7 µM; GI50 (NCI-H460 lung): 2620 nM; TGI (NCI-H460 lung): 7.24 µM; GI50 (MCF7 breast): 2240 nM; TGI (MCF7 breast): 6.8 µM; GI50 (OVCAR-3 ovarian): 12.4 µM; TGI (OVCAR-3 ovarian): 25.9 µM; GI50 (HOP-62 NSCLC): 3.35 µM; TGI (HOP-62 NSCLC): 13.4 µM; GI50 (786-0 renal): 1720 nM; TGI (786-0 renal): 3.28 µM; GI50 (HCT-116 colon): 3.18 µM; TGI (HCT-116 colon): 12.6 µM; GI50 (MALME-3M melanoma): 16.7 µM; TGI (MALME-3M melanoma): 30.3 µM; GI50 (HCT-15 colon): 3.43 µM; TGI (HCT-15 colon): 11.6 µM
